# Laboratory results: patent publication US7109193B2, “Tricyclic diazepines tocolytic oxytocin receptor antagonists” (Wyeth, priority 2001, dated 2006)
# Molecular target: T1, human oxytocin receptor (Homo sapiens, UniProt P30559)
# T1 construct: host or cells: CHO cells (pcDNA3.1 vector)
# T1 sequence (P30559 1-389): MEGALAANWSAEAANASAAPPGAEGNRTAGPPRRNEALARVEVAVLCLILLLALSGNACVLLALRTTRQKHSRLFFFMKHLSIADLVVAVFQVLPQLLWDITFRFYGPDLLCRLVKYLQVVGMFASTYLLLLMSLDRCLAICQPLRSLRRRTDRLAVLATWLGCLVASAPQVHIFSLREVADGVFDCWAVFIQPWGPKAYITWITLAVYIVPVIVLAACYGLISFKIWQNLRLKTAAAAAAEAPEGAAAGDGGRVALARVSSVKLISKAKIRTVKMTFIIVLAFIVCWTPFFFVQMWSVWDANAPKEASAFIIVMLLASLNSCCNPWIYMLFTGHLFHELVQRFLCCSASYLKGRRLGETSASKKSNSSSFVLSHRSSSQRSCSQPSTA
# Assay: Oxytocin binding in Chinese Hamster Ovary cell membranes expressing human oxytocin receptors
# Conditions: 100 nM, CHO cell membranes, [3H]oxytocin, values without parentheses, read-out: OT % inhibition @ 100% nM
row,SMILES,inhibition at 0.1 µM [%]
1,"COc1cc(C(=O)N2Cc3ccc(C(=O)N4CCC(N5CCCCC5)CC4)n3Cc3ccccc32)ccc1-n1c(C)ccc1C [Example 311, {10-[4-(2,5-Dimethyl-1H-pyrrol-1-yl)-3-methoxy-benzoyl]-10,11-dihydro-5H-pyrrolo[2,1-c][1,4]benzodiazepin-3-yl}[4-(1-piperidinyl)-1-piperidinyl]-methanone]",16
2,"COc1cc(C(=O)N2Cc3ccc(C(=O)NCCCn4ccnc4)n3Cc3ccccc32)ccc1-n1c(C)ccc1C [Example 312, 10-[4-(2,5-Dimethyl-1H-pyrrol-1-yl)-3-methoxybenzoyl]-N-[3-(1H-imidazol-1-yl)propyl]-10,11-dihydro-5H-pyrrolo[2,1-c][1,4]benzodiazepine-3-carboxamide]",16
3,"COc1cc(C(=O)N2Cc3ccc(C(=O)N4CCC(N5CCCC5)CC4)n3Cc3ccccc32)ccc1-n1c(C)ccc1C [Example 313, {10-[4-(2,5-Dimethyl-1H-pyrrol-1-yl)-3-methoxybenzoyl]-10,11-dihydro-5H-pyrrolo[2,1-c][1,4]benzodiazepin-3-yl}[4-(1-pyrrolidinyl)-1-piperidinyl]methanone]",32
4,"COc1cc(C(=O)N2Cc3ccc(C(=O)NCCN4CCCCC4)n3Cc3ccccc32)ccc1-n1c(C)ccc1C [Example 314, 10-[4-(2,5-Dimethyl-1H-pyrrol-1-yl)-3-methoxybenzoyl]-N-[2-(1-piperidinyl)ethyl]-10,11-dihydro-5H-pyrrolo[2,1-c][1,4]benzodiazepine-3-carboxamide]",19
5,"COc1cc(C(=O)N2Cc3ccc(C(=O)NCCC4CCCN4C)n3Cc3ccccc32)ccc1-n1c(C)ccc1C (centres unmarked) [Example 315, 10-[4-(2,5-Dimethyl-1H-pyrrol-1-yl)-3-methoxybenzoyl]-N-[2-(1-methyl-2-pyrrolidinyl)ethyl]-10,11-dihydro-5H-pyrrolo[2,1-c][1,4]benzodiazepine-3-carboxamide]",10
6,"COc1cc(C(=O)N2Cc3ccc(C(=O)N4CCN(CCN(C)C)CC4)n3Cc3ccccc32)ccc1-n1c(C)ccc1C [Example 316, {4-[2-(Dimethylamino)ethyl]-1-piperazinyl}{10-[4-(2,5-dimethyl-1H-pyrrol-1-yl)-3-methoxybenzoyl]-10,11-dihydro-5H-pyrrolo[2,1-c][1,4]benzodiazepin-3-yl}methanone]",24
7,"COc1cc(C(=O)N2Cc3ccc(C(=O)N4CCN(CCN5CCOCC5)CC4)n3Cc3ccccc32)ccc1-n1c(C)ccc1C [Example 317, {10-[4-(2,5-Dimethyl-1H-pyrrol-1-yl)-3-methoxybenzoyl]-10,11-dihydro-5H-pyrrolo[2,1-c][1,4]benzodiazepin-3-yl}{4-[2-(4-morpholinyl)ethyl]-1-piperazinyl}methanone]",32
8,"C=CCN1CCN(C(=O)c2ccc3n2Cc2ccccc2N(C(=O)c2ccc(-n4c(C)ccc4C)c(OC)c2)C3)CC1 [Example 318, (4-Allyl-1-piperazinyl){10-[4-(2,5-dimethyl-1H-pyrrol-1-yl)-3-methoxybenzoyl]-10,11-dihydro-5H-pyrrolo[2,1-c][1,4]benzodiazepin-3-yl}methanone]",32
9,"COc1cc(C(=O)N2Cc3ccc(C(=O)N4CCN(C(C)C)CC4)n3Cc3ccccc32)ccc1-n1c(C)ccc1C [Example 319, {10-[4-(2,5-Dimethyl-1H-pyrrol-1-yl)-3-methoxybenzoyl]-10,11-dihydro-5H-pyrrolo[2,1-c][1,4]benzodiazepin-3-yl}(4-isopropyl-1-piperazinyl)methanone]",22
10,"COc1cc(C(=O)N2Cc3ccc(C(=O)N4CCN(CCCN(C)C)CC4)n3Cc3ccccc32)ccc1-n1c(C)ccc1C [Example 320, {4-[3-(Dimethylamino)propyl]-1-piperazinyl}{10-[4-(2,5-dimethyl-1H-pyrrol-1-yl)-3-methoxybenzoyl]-10,11-dihydro-5H-pyrrolo[2,1-c][1,4]benzodiazepin-3-yl}methanone]",34
11,"Cc1cc(C(=O)N2Cc3cccn3Cc3ncccc32)ccc1-c1ccccc1C(F)(F)F [Example 323F, (2-Methyl-2′-trifluoromethyl-[1,1′-biphenyl]-4-yl)-(4H,10H-3a,5,9-triaza-benzo[f]azulen-9-yl)-methanone]",33
